One compound from ChEMBL document CHEMBL4622911, “A cell-based fluorescent assay for FAP inhibitor discovery” (Bioorg Med Chem Lett, 2020) can be followed below.

Holding throughout (assay type): cell-based
Common to all, as to settings: U-87MG ATCC

For experiment [1], the target named is Prolyl endopeptidase FAP (Homo sapiens) (UniProt Q12884). Put plainly: Inhibition of FAP in human U87MG cells using Z-Gly-Pro-AMC as substrate at 1 uM incubated for 90 mins by fluorescence based assay relative to control.
Prolyl endopeptidase FAP (Homo sapiens), sequence (Q12884 whole entry): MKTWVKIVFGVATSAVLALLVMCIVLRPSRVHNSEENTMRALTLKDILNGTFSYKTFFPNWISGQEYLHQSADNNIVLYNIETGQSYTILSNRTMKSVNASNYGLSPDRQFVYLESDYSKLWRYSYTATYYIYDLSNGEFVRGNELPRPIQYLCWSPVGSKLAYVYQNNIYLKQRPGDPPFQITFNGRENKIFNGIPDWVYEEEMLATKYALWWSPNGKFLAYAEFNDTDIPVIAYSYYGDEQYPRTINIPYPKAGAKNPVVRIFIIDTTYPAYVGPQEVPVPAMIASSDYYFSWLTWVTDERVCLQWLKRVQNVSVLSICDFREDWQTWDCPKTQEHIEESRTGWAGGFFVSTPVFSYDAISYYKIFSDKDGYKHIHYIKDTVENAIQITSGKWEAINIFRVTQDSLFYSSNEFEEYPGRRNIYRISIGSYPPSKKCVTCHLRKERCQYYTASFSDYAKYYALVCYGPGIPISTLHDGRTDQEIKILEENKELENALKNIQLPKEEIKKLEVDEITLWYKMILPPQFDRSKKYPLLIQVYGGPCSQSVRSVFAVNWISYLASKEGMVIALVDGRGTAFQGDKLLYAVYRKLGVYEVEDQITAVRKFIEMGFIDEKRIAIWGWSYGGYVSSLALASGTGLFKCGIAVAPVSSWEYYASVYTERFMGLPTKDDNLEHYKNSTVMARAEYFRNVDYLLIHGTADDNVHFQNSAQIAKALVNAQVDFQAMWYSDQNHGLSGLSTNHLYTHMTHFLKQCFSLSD
Experiment [2] has the same target. Put plainly: Inhibition of FAP in human U87MG cells using Suc-Gly-Pro-AMC as substrate at 1 uM incubated for 90 mins by fluorescence based assay relative to control.
Experiment [3] has the same target. The experiment in a line: Inhibition of FAP in human U87MG cells using Gly-Pro-AMC as substrate at 1 uM incubated for 90 mins by fluorescence based assay relative to control.

For orientation: inhibition means the drop in the measured response relative to a control, in per cent. A lower inhibition goes with a weak effect. For the compound `N#C[C@@H]1CC(F)(F)CN1C(=O)CNC(=O)c1ccnc2ccccc12`, the inhibition in experiment [1] came to 30.7%; in experiment [2], 91.9%; in experiment [3], 17.5%.
